Experimental data reported in patent US20230293458A1, “MULTIBIOTIC AGENTS AND METHODS OF USING THE SAME” (Flagship Pioneering Innovations V, Inc., priority 2017, published 2023).

Columns and labels:
[1] = Stability of multibiotic agents in Simulated Gastric Fluid (SGF); assay type: in vitro ADME; settings: simulated gastric fluid pH 1.6 with pepsin, 37° C., 1 μM
Procedure, shortened: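 Compounds were incubated at 1 μM final at 37 °C in simulated gastric fluid containing NaCl, pH 1.6, with FaSSIF powder and 0.1 mg/mL pepsin. Aliquots were taken at T0 and at regular intervals and quenched with acetonitrile. Degradation rates were determined by LC/MS.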

[2] = Stability of multibiotic agents in Simulated Intestinal Fluid (SIF); assay type: in vitro ADME; settings: simulated intestinal fluid pH 6.7 with pancreatin, 37° C., 1 μM
Procedure, shortened: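 Compounds at 1 μM final (from 1 mM DMSO stock) incubated at 37 °C with agitation in fresh SIF (FaSSIF plus pancreatin in pH 6.7 phosphate buffer). Aliquots taken at T0 and regular intervals, quenched with 1 volume acetonitrile. Degradation rate determined by LC/MS.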

Compound: O=C(Cc1c[nH]c2ccccc12)OC[C@H](OC(=O)Cc1c[nH]c2ccccc12)[C@@H](COC(=O)Cc1c[nH]c2ccccc12)OC(=O)Cc1c[nH]c2ccccc12 [Example 105, [(2R,3S)-2,3,4-tris[[2-(1H-indol-3-yl)acetyl]oxy]butyl] 2-(1H-indol-3-yl)acetate]
- Assay 2 (SGF) (% Remaining @ 4 hours) [1]: C (>75% of the tested compound remaining)
- Assay 3 (SIF) (% @ Remaining 4 hours) [2]: B (25-75% of the tested compound remaining)

Compound: O=C(Cc1c[nH]c2ccccc12)OC[C@@H](OC(=O)Cc1c[nH]c2ccccc12)[C@H]1OC[C@H](OC(=O)Cc2c[nH]c3ccccc23)[C@H]1OC(=O)Cc1c[nH]c2ccccc12 [Example 106, [(2R)-2-[(2R,3R,4S)-3,4-bis[[2-(1H-indol-3-yl)acetyl]oxy]tetrahydrofuran-2-yl]-2-[2-(1H-indol-3-yl)acetyl]oxy-ethyl] 2-(1H-indol-3-yl)acetate]
- Assay 2 (SGF) (% Remaining @ 4 hours) [1]: C (>75% of the tested compound remaining)
- Assay 3 (SIF) (% @ Remaining 4 hours) [2]: C (>75% of the tested compound remaining)

Compound: O=C(CCc1c[nH]c2ccccc12)OC[C@@H](OC(=O)CCc1c[nH]c2ccccc12)[C@H]1OC[C@H](OC(=O)CCc2c[nH]c3ccccc23)[C@H]1OC(=O)CCc1c[nH]c2ccccc12 [Example 107, [(2R)-2-[(2R,3R,4S)-3,4-bis[3-(1H-indol-3-yl)propanoyloxy]tetrahydrofuran-2-yl]-2-[3-(1H-indol-3-yl)propanoyloxy]ethyl] 3-(1H-indol-3-yl)propanoate]
- Assay 2 (SGF) (% Remaining @ 4 hours) [1]: C (>75% of the tested compound remaining)
- Assay 3 (SIF) (% @ Remaining 4 hours) [2]: B (25-75% of the tested compound remaining)

Compound: CCCC(=O)O[C@H]1CO[C@H]2[C@@H]1OC[C@H]2OC(=O)CCC [Example 108, [(3S,3aR,6R,6aR)-6-butanoyloxy-2,3,3a,5,6,6a-hexahydrofuro[3,2-b]furan-3-yl] butanoate]
- Assay 2 (SGF) (% Remaining @ 4 hours) [1]: C (>75% of the tested compound remaining)
- Assay 3 (SIF) (% @ Remaining 4 hours) [2]: B (25-75% of the tested compound remaining)

Compound: O=C(CCc1c[nH]c2ccccc12)O[C@H]1CO[C@H]2[C@@H]1OC[C@H]2OC(=O)CCc1c[nH]c2ccccc12 [Example 110, [(3S,3aR,6R,6aR)-6-[3-(1H-indol-3-yl)propanoyloxy]-2,3,3a,5,6,6a-hexahydrofuro[3,2-b]furan-3-yl] 3-(1H-indol-3-yl) propanoate]
- Assay 2 (SGF) (% Remaining @ 4 hours) [1]: C (>75% of the tested compound remaining)
- Assay 3 (SIF) (% @ Remaining 4 hours) [2]: A (<25% of the tested compound remaining)

Compound: C[C@@H](O)CC(=O)OCCCNC(=O)[C@H](OC(=O)C[C@@H](C)O)C(C)(C)COC(=O)C[C@@H](C)O [Example 111, 3-[[(2R)-2,4-bis[[(3R)-3-hydroxybutanoyl]oxy]-3,3-dimethyl-butanoyl]amino]propyl (3R)-3-hydroxybutanoate]
- Assay 2 (SGF) (% Remaining @ 4 hours) [1]: C (>75% of the tested compound remaining)
- Assay 3 (SIF) (% @ Remaining 4 hours) [2]: C (>75% of the tested compound remaining)

Compound: C[C@@H](O)CC(=O)OCC(C)(C)[C@@H](OC(=O)C[C@@H](C)O)C(=O)NCCC(N)=O [Example 114, [(3R)-4-[(3-amino-3-oxo-propyl)amino]-3-[(3R)-3-hydroxybutanoyl]oxy-2,2-dimethyl-4-oxo-butyl] (3R)-3-hydroxybutanoate]
- Assay 2 (SGF) (% Remaining @ 4 hours) [1]: C (>75% of the tested compound remaining)
- Assay 3 (SIF) (% @ Remaining 4 hours) [2]: C (>75% of the tested compound remaining)

Compound: CC(=O)CC(=O)O[C@H]1CO[C@H]2[C@@H]1OC[C@H]2OC(=O)CC(C)=O [Example 115, [(3S,3aR,6R,6aR)-6-(3-oxobutanoyloxy)-2,3,3a,5,6,6a-hexahydrofuro[3,2-b]furan-3-yl] 3-oxobutanoate]
- Assay 2 (SGF) (% Remaining @ 4 hours) [1]: C (>75% of the tested compound remaining)
- Assay 3 (SIF) (% @ Remaining 4 hours) [2]: B (25-75% of the tested compound remaining)

Compound: CCCC(=O)Nc1ccc(O)c(C(=O)O)c1 [Example 116, 5-(butanoylamino)-2-hydroxy-benzoic acid]
- Assay 2 (SGF) (% Remaining @ 4 hours) [1]: C (>75% of the tested compound remaining)
- Assay 3 (SIF) (% @ Remaining 4 hours) [2]: C (>75% of the tested compound remaining)

Compound: CCCC(=O)O[C@@H]1[C@H](OC(=O)CCC)COC(Oc2ccc(N)cc2C(=O)O)[C@@H]1OC(=O)CCC (stereo partly drawn) [Example 117, 5-amino-2-[(3R,4R,5R)-3,4,5-tri(butanoyloxy)tetrahydropyran-2-yl]oxy-benzoic acid]
- Assay 2 (SGF) (% Remaining @ 4 hours) [1]: C (>75% of the tested compound remaining)
- Assay 3 (SIF) (% @ Remaining 4 hours) [2]: C (>75% of the tested compound remaining)

Compound: CC(=O)Oc1ccc(/C=C/c2cc(OC(C)=O)cc(OC(C)=O)c2)cc1 [Example 118, [(E)-2-(3,5-diacetoxyphenyl)vinyl]phenyl] acetate]
- Assay 2 (SGF) (% Remaining @ 4 hours) [1]: C (>75% of the tested compound remaining)
- Assay 3 (SIF) (% @ Remaining 4 hours) [2]: C (>75% of the tested compound remaining)

Compound: CCCC(=O)O[C@H](C)CC(=O)Oc1ccc2c(c1)oc(=O)c1cc(OC(=O)C[C@@H](C)OC(=O)CCC)c(OC(=O)C[C@@H](C)OC(=O)CCC)cc12 [Example 122, [8,9-bis[[(3R)-3-butanoyloxybutanoyl]oxy]-6-oxo-benzo[c]chromen-3-yl] (3R)-3-butanoyloxybutanoate]
- Assay 2 (SGF) (% Remaining @ 4 hours) [1]: C (>75% of the tested compound remaining)
- Assay 3 (SIF) (% @ Remaining 4 hours) [2]: A (<25% of the tested compound remaining)

Compound: O=C(/C=C/c1c[nH]c2ccccc12)O[C@H]1CO[C@H]2[C@@H]1OC[C@H]2OC(=O)/C=C/c1c[nH]c2ccccc12 [Example 123, [(3R,3aR,6S,6aR)-6-[(E)-3-(1H-indol-3-yl)prop-2-enoyl]oxy-2,3,3a,5,6,6a-hexahydrofuro[3,2-b]furan-3-yl] (E)-3-(1H-indol-3-yl)prop-2-enoate]
- Assay 2 (SGF) (% Remaining @ 4 hours) [1]: C (>75% of the tested compound remaining)
- Assay 3 (SIF) (% @ Remaining 4 hours) [2]: C (>75% of the tested compound remaining)

Compound: CC(C)(COC(=O)/C=C/c1c[nH]c2ccccc12)[C@@H](OC(=O)/C=C/c1c[nH]c2ccccc12)C(=O)NCCC(N)=O [Example 124, [(3R)-4-[(3-amino-3-oxo-propyl)amino]-3-[(E)-3-(1H-indol-3-yl)prop-2-enoyl]oxy-2,2-dimethyl-4-oxo-butyl] (E)-3-(1H-indol-3-yl)prop-2-enoate]
- Assay 2 (SGF) (% Remaining @ 4 hours) [1]: C (>75% of the tested compound remaining)
- Assay 3 (SIF) (% @ Remaining 4 hours) [2]: C (>75% of the tested compound remaining)

Compound: CC(C)(COC(=O)/C=C/c1c[nH]c2ccccc12)[C@@H](OC(=O)/C=C/c1c[nH]c2ccccc12)C(=O)NCCCOC(=O)/C=C/c1c[nH]c2ccccc12 [Example 125, 3-[[(2R)-2,4-bis[[(E)-3-(1H-indol-3-yl)prop-2-enoyl]oxy]-3,3-dimethyl-butanoyl]amino]propyl (E)-3-(1H-indol-3-yl)prop-2-enoate]
- Assay 2 (SGF) (% Remaining @ 4 hours) [1]: C (>75% of the tested compound remaining)
- Assay 3 (SIF) (% @ Remaining 4 hours) [2]: C (>75% of the tested compound remaining)

Compound: CCCC(=O)NCCCNC(=O)CCC [Example 126, N-[3-(butanoylamino)propyl]butanamide]
- Assay 2 (SGF) (% Remaining @ 4 hours) [1]: C (>75% of the tested compound remaining)
- Assay 3 (SIF) (% @ Remaining 4 hours) [2]: C (>75% of the tested compound remaining)

Compound: CCCC(=O)NCCCCN(CCCNC(=O)CCC)C(=O)CCC [Example 127, N-[4-[butanoyl-[3-(butanoylamino)propyl]amino]butyl]butanamide]
- Assay 2 (SGF) (% Remaining @ 4 hours) [1]: C (>75% of the tested compound remaining)
- Assay 3 (SIF) (% @ Remaining 4 hours) [2]: C (>75% of the tested compound remaining)
